From US9662323B2, “Compounds having muscarinic receptor antagonist and beta2 adrenergic receptor agonist activity” (CHIESI FARMACEUTICI S.p.A., priority 2015, dated 2017) come the findings set out here.

The Ki is the dissociation constant of the complex between target and ligand, obtained from inhibition or displacement.

One test addresses T1, Human β2 adrenoceptor (Homo sapiens, UniProt P07550).
T1 construct: purchased Perkin Elmer
In words: β2 Adrenoceptor Radioligand Binding Assay. Conditions: human β2 adrenoceptor membranes, 125-I Cyanopindolol; read-out: B2 binding affinity (Ki class). The protocol: β2 Adrenoceptor Radioligand Binding Assay
The assay was carried out in 96-well polypropylene plates in a volume of 200 ul. The assay buffer used was 25 mM HEPES, 0.5% BSA (w/v), 1 mM EDTA, 0.02% ascorbic acid (v/v), (pH 7.4). The final assay concentration of DMSO was 0.5% (v/v). The plates were sealed and incubated for 1 h at room temperature on an orbital shaker (slow speed). Membranes were harvested onto 96-well unifilter GF/C filter plates pre-treated with 0.5% polyethyleneimine (v/v), using a filter manifold, washed six times with 200 ul of wash buffer containing 10 mM HEPES and 500 mM NaCl. The plates were dried before addition of 50 μl of microscint-0, sealed then read in a Trilux Microbeta scintillation counter. IC50 values are determined from competition curves using a non-linear curve fitting program. Ki values were calculated from IC50 values by the Cheng and Prusoff equation.

The next test has as its target T2, Human M3 receptor (Homo sapiens, UniProt P20309).
T2 construct: purchased Perkin Elmer
In words: M3 Receptor Radioligand Binding Assay. Conditions: human M3 receptor membranes, [3H]-N-methyl scopolamine; read-out: M3 binding affinity (Ki class). The procedure: Biological Characterization M3 Receptor Radioligand Binding Assay
The assay was carried out in 96-well polypropylene plates in a volume of 250 ul. […] The final assay concentration of DMSO was 0.5% (v/v). The plates were sealed and incubated for 2 h at room temperature on an orbital shaker (slow speed). Membranes were harvested onto 96-well unifilter GF/C filter plates pre-treated with 0.5% polyethyleneimine (v/v), using a filter manifold, washed four times with 200 ul of assay buffer. The plates were dried before addition of 50 μl of microscint-0, sealed then read in a Trilux Microbeta scintillation counter.

T2 sequence (P20309 whole entry): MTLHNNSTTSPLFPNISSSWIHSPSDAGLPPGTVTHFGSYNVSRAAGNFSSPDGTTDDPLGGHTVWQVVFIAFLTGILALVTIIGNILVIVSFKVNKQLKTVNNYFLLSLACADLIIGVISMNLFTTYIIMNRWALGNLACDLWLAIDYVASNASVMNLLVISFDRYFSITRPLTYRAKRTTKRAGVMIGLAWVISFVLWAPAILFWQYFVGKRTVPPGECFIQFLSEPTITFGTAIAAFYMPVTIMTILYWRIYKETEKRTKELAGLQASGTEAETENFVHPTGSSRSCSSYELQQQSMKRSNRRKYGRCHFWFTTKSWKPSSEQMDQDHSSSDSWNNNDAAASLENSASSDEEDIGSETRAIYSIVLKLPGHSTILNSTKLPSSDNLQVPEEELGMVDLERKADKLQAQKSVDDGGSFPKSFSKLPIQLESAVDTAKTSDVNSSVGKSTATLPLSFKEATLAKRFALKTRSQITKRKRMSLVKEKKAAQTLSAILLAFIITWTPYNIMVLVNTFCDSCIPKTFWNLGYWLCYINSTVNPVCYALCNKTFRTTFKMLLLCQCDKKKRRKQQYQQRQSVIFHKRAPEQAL
T1 sequence (P07550 whole entry): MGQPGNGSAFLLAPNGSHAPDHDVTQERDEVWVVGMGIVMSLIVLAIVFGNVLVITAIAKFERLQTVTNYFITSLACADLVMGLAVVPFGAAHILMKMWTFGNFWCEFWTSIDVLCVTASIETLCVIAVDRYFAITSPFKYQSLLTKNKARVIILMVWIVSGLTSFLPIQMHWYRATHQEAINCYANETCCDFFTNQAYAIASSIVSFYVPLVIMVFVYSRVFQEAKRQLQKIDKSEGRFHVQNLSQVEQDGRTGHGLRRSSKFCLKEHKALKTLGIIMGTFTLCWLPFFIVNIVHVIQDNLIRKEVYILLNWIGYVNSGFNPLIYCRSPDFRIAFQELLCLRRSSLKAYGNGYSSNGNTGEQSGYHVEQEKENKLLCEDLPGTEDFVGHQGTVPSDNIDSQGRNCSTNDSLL

For `Cc1cc(CCC(=O)N2CCC(C(=O)O[C@H]3CN4CCC3CC4)(c3ccccc3)CC2)ccc1OCCCCCNC[C@H](O)c1ccc(O)c2[nH]c(=O)ccc12` [Compound 17, (R)-Quinuclidin-3-yl 1-(3-(4-((5-(((R)-2-hydroxy-2-(8-hydroxy-2-oxo-1,2-dihydroquinolin-5-yl)ethyl)amino)pentyl)oxy)-3-methylphenyl)propanoyl)-4-phenylpiperidine-4-carboxylate], the Ki on Human β2 adrenoceptor and on Human M3 receptor was < 1 nM each time.

As to `O=C(NCc1ccc(C(=O)N2CC(C(=O)O[C@H]3CN4CCC3CC4)(c3ccccc3)C2)cc1)c1ccc(CNC[C@H](O)c2ccc(O)c3[nH]c(=O)ccc23)cc1` [Compound 17A, (R)-Quinuclidin-3-yl 1-(4-((4-((((R)-2-hydroxy-2-(8-hydroxy-2-oxo-1,2-dihydroquinolin-5-yl)ethyl)amino)methyl)benzamido)methyl)benzoyl)-3-phenylazetidine-3-carboxylate], the Ki on Human β2 adrenoceptor and on Human M3 receptor was < 1 nM in each case.

Consider `Cc1cc(/C=C/C(=O)N2CCC(C(=O)O[C@H]3CN4CCC3CC4)(c3ccccc3)CC2)ccc1OCCCCCNC[C@H](O)c1ccc(O)c2[nH]c(=O)ccc12` [Compound 18, (R)-Quinuclidin-3-yl 1-((E)-3-(4-((5-(((R)-2-hydroxy-2-(8-hydroxy-2-oxo-1,2-dihydroquinolin-5-yl)ethyl)amino)pentyl)oxy)-3-methylphenyl)acryloyl)-4-phenylpiperidine-4-carboxylate], for which the Ki at Human β2 adrenoceptor and at Human M3 receptor was < 1 nM each time.

For `O=C(c1ccc(OCCCCNC[C@H](O)c2ccc(O)c3[nH]c(=O)ccc23)cc1)N1CC(C(=O)O[C@H]2CN3CCC2CC3)(c2ccccc2)C1` [Compound 18A, (R)-Quinuclidin-3-yl 1-(4-(4-(((R)-2-hydroxy-2-(8-hydroxy-2-oxo-1,2-dihydroquinolin-5-yl)ethyl)amino)butoxy)benzoyl)-3-phenylazetidine-3-carboxylate], the Ki on Human β2 adrenoceptor is < 1 nM; at Human M3 receptor, 1 to 10 nM.

As for `O=C(NCCCCNC[C@H](O)c1ccc(O)c2[nH]c(=O)ccc12)c1ccc(C(=O)N2CCC(C(=O)O[C@H]3CN4CCC3CC4)(c3ccccc3)CC2)cc1` [Compound 19, (R)-Quinuclidin-3-yl 1-(4-((4-(((R)-2-hydroxy-2-(8-hydroxy-2-oxo-1,2-dihydroquinolin-5-yl)ethyl)amino)butyl)carbamoyl)benzoyl)-4-phenylpiperidine-4-carboxylate], the values for the Ki on Human β2 adrenoceptor and on Human M3 receptor were < 1 nM and 1 to 10 nM, respectively.

On to `O=C(NCCCNC[C@H](O)c1ccc(O)c2[nH]c(=O)ccc12)c1ccc(COc2ccc(C(=O)N3CC(C(=O)O[C@H]4CN5CCC4CC5)(c4ccccc4)C3)cc2)cc1` [Compound 19A, (R)-Quinuclidin-3-yl 1-(4-((4-((3-(((R)-2-hydroxy-2-(8-hydroxy-2-oxo-1,2-dihydroquinolin-5-yl)ethyl)amino)propyl)carbamoyl)benzyl)oxy)benzoyl)-3-phenylazetidine-3-carboxylate], for which the Ki on Human β2 adrenoceptor and on Human M3 receptor was < 1 nM in each case.

For the molecule `O=C(c1ccc(CCNC[C@H](O)c2ccc(O)c3[nH]c(=O)ccc23)cc1)N1CCC(C(=O)O[C@H]2CN3CCC2CC3)(c2ccccc2)CC1` [Compound 20, (R)-Quinuclidin-3-yl 1-(4-(2-(((R)-2-hydroxy-2-(8-hydroxy-2-oxo-1,2-dihydroquinolin-5-yl)ethyl)amino)ethyl)benzoyl)-4-phenylpiperidine-4-carboxylate], the Ki was < 1 nM on Human β2 adrenoceptor and > 10 nM on Human M3 receptor.

Turning to `COc1cc(CNC(=O)c2ccc(C(=O)N3CC(C(=O)O[C@H]4CN5CCC4CC5)(c4ccccc4)C3)cc2)ccc1CNC[C@H](O)c1ccc(O)c2[nH]c(=O)ccc12` [Compound 20A, (R)-Quinuclidin-3-yl 1-(4-((4-((((R)-2-hydroxy-2-(8-hydroxy-2-oxo-1,2-dihydroquinolin-5-yl)ethyl)amino)methyl)-3-methoxybenzyl)carbamoyl)benzoyl)-3-phenylazetidine-3-carboxylate], the Ki at Human β2 adrenoceptor and on Human M3 receptor was < 1 nM throughout.

As for `O=C(NCCCCNC[C@H](O)c1ccc(O)c2[nH]c(=O)ccc12)c1ccc(C(=O)N2CCC(C(=O)O[C@H]3CN4CCC3CC4)(c3ccccc3)CC2)s1` [Compound 21, (R)-Quinuclidin-3-yl 1-(5-((4-(((R)-2-hydroxy-2-(8-hydroxy-2-oxo-1,2-dihydroquinolin-5-yl)ethyl)amino)butyl)carbamoyl)thiophene-2-carbonyl)-4-phenylpiperidine-4-carboxylate], the Ki was < 1 nM on Human β2 adrenoceptor and 1 to 10 nM on Human M3 receptor.

`O=C(c1ccc(OCc2cccc(OCCCCNC[C@H](O)c3ccc(O)c4[nH]c(=O)ccc34)c2)cc1)N1CCC(C(=O)O[C@H]2CN3CCC2CC3)(c2ccccc2)CC1` [Compound 22, (R)-Quinuclidin-3-yl 1-(4-((3-(4-(((R)-2-hydroxy-2-(8-hydroxy-2-oxo-1,2-dihydroquinolin-5-yl)ethyl)amino)butoxy)benzyl)oxy)benzoyl)-4-phenylpiperidine-4-carboxylate]: the Ki on Human β2 adrenoceptor is < 1 nM; at Human M3 receptor, 1 to 10 nM.

Regarding `O=C(NCc1ccc(CNC[C@H](O)c2ccc(O)c3[nH]c(=O)ccc23)cc1)c1ccc(C(=O)N2CCC(C(=O)O[C@H]3CN4CCC3CC4)(c3ccccc3)CC2)cc1` [Compound 23, (R)-Quinuclidin-3-yl 1-(4-((4-((((R)-2-hydroxy-2-(8-hydroxy-2-oxo-1,2-dihydroquinolin-5-yl)ethyl)amino)methyl)benzyl)carbamoyl)benzoyl)-4-phenylpiperidine-4-carboxylate], the Ki was 1 to 10 nM on Human β2 adrenoceptor and < 1 nM at Human M3 receptor.

As to `O=C(c1ccc(OCc2ccc(CNC[C@H](O)c3ccc(O)c4[nH]c(=O)ccc34)cc2)cc1)N1CCC(C(=O)O[C@H]2CN3CCC2CC3)(c2ccccc2)CC1` [Compound 24, (R)-Quinuclidin-3-yl 1-(4-((4-((((R)-2-hydroxy-2-(8-hydroxy-2-oxo-1,2-dihydroquinolin-5-yl)ethyl)amino)methyl)benzyl)oxy)benzoyl)-4-phenylpiperidine-4-carboxylate], the Ki at Human β2 adrenoceptor and on Human M3 receptor was < 1 nM throughout.

`CCN(CCCNC[C@H](O)c1ccc(O)c2[nH]c(=O)ccc12)C(=O)c1ccc(C(=O)N2CCC(C(=O)O[C@H]3CN4CCC3CC4)(c3ccccc3)CC2)cc1` [Compound 25, (R)-Quinuclidin-3-yl 1-(4-(ethyl(3-(((R)-2-hydroxy-2-(8-hydroxy-2-oxo-1,2-dihydroquinolin-5-yl)ethyl)amino)propyl)carbamoyl)benzoyl)-4-phenylpiperidine-4-carboxylate]: the Ki on Human β2 adrenoceptor and at Human M3 receptor was 1 to 10 nM throughout.

With `O=C(c1ccc(OCc2ccc(CCNC[C@H](O)c3ccc(O)c4[nH]c(=O)ccc34)cc2)cc1)N1CCC(C(=O)O[C@H]2CN3CCC2CC3)(c2ccccc2)CC1` [Compound 26, (R)-Quinuclidin-3-yl 1-(4-((4-(2-(((R)-2-hydroxy-2-(8-hydroxy-2-oxo-1,2-dihydroquinolin-5-yl)ethyl)amino)ethyl)benzyl)oxy)benzoyl)-4-phenylpiperidine-4-carboxylate], the Ki at Human β2 adrenoceptor and at Human M3 receptor was < 1 nM in each case.

As for `CN(CCCNC[C@H](O)c1ccc(O)c2[nH]c(=O)ccc12)C(=O)c1ccc(C(=O)N2CCC(C(=O)O[C@H]3CN4CCC3CC4)(c3ccccc3)CC2)s1` [Compound 27, (R)-Quinuclidin-3-yl 1-(5-((3-(((R)-2-hydroxy-2-(8-hydroxy-2-oxo-1,2-dihydroquinolin-5-yl)ethyl)amino)propyl)(methyl)carbamoyl)thiophene-2-carbonyl)-4-phenylpiperidine-4-carboxylate], the values for the Ki at Human β2 adrenoceptor and at Human M3 receptor were < 1 nM and 1 to 10 nM, respectively.

For the molecule `O=C(c1ccc(C(=O)N(CCCNC[C@H](O)c2ccc(O)c3[nH]c(=O)ccc23)Cc2ccccc2)s1)N1CCC(C(=O)O[C@H]2CN3CCC2CC3)(c2ccccc2)CC1` [Compound 28, (R)-Quinuclidin-3-yl 1-(5-(benzyl(3-(((R)-2-hydroxy-2-(8-hydroxy-2-oxo-1,2-dihydroquinolin-5-yl)ethyl)amino)propyl)carbamoyl)thiophene-2-carbonyl)-4-phenylpiperidine-4-carboxylate], the Ki is < 1 nM at Human β2 adrenoceptor and 1 to 10 nM on Human M3 receptor.

Regarding `CCN(CCCNC[C@H](O)c1ccc(O)c2[nH]c(=O)ccc12)C(=O)c1ccc(C(=O)N2CCC(C(=O)O[C@H]3CN4CCC3CC4)(c3ccccc3)CC2)s1` [Compound 29, (R)-Quinuclidin-3-yl 1-(5-(ethyl(3-(((R)-2-hydroxy-2-(8-hydroxy-2-oxo-1,2-dihydroquinolin-5-yl)ethyl)amino)propyl)carbamoyl)thiophene-2-carbonyl)-4-phenylpiperidine-4-carboxylate], the Ki on Human β2 adrenoceptor is < 1 nM; at Human M3 receptor, 1 to 10 nM.
